According to US10231453B2, “5-substituted imidazole derivatives” (BAYER CROPSCIENCE AKTIENGESELLSCHAFT, priority 2015, dated 2019):
Like-named read-outs stand apart in the source and are kept apart here.

Assays:
[1] = Measurement of LogP values by HPLC on reversed phase columns (EEC directive 79/831 Annex V.A8); type: physicochemical; conditions: method [a]: LC-UV, acidic range, 0.1% formic acid in water and acetonitrile as eluent; Table 1
Procedure: Measurement of Log P values was performed as outlined above.

[2] = tested on: Botrytis cinerea; assay: In vivo preventive test on Botrytis cinerea (grey mould) on gherkin, Examples B, Q1 and R2; conditions: Botrytis cinerea
[3] = tested on: Puccinia recondita; assay: In vivo preventive test on Puccinia recondita (brown rust on wheat), Examples C and R3; conditions: Puccinia recondita, 264 h, preventive spray, evaluated 11 days after inoculation
[4] = tested on: Pyrenophora teres; assay: In vivo preventive test on Pyrenophora teres (net blotch on barley), Examples D, Q2 and R4; conditions: Pyrenophora teres, 336 h
[5] = tested on: Septoria tritici; assay: In vivo preventive test on Septoria tritici (leaf spot on wheat), Examples E, Q3 and R5; conditions: Zymoseptoria tritici, 576 h, preventive spray, evaluated 24 days after inoculation
[6] = tested on: Sphaerotheca fuliginea; assay: In vivo preventive test on Sphaerotheca fuliginea (powdery mildew on cucurbits), Examples F and R6; conditions: Podosphaera fuliginea, 360 h, preventive spray, evaluated 15 days after inoculation
[7] = tested on: Uromyces appendiculatus; assay: In vivo preventive test on Uromyces appendiculatus (bean rust), Examples G and R7; conditions: 264 h, preventive spray, evaluated 11 days after inoculation
[8] = tested on: Alternaria solani; assay: In vivo preventive Alternaria test (tomatoes), Example H; conditions: 72 h, 100 ppm of active ingredient, preventive spray, evaluated 3 days after inoculation, read-out: efficacy
[9] = tested on: Phakopsora pachyrhizi; assay: In vivo preventive Phakopsora test (soybeans), Example I; conditions: 168 h, 100 ppm of active ingredient, preventive spray, evaluated 7 days after inoculation, read-out: efficacy
[10] = tested on: Blumeria graminis fsp. hordei; assay: In vivo preventive Blumeria test (barley), Example K; conditions: 168 h, 500 ppm of active ingredient, preventive spray, evaluated 7 days after inoculation, read-out: efficacy
Excerpt: After the spray coating has been dried, the plants are dusted with spores of Blumeria graminis fsp. hordei.

[11] = tested on: Fusarium graminearum; assay: whole plant or invertebrate; type: in vivo; conditions: in Hordeum vulgare, 120 h, read-out: efficacy
[12] = tested on: Leptosphaeria nodorum; assay: In vivo preventive Leptosphaeria nodorum test (wheat), Example N; conditions: Parastagonospora nodorum, 192 h, 500 ppm of active ingredient, preventive spray, evaluated 8 days after inoculation, read-out: efficacy
Excerpt: After the spray coating has been dried, the plants are sprayed with a spore suspension of Leptosphaeria nodorum.

[13] = tested on: Fusarium nivale (var. majus); assay: In vivo preventive Fusarium nivale (var. majus) test (wheat), Example O; conditions: Microdochium nivale, 120 h, 500 ppm of active ingredient, preventive spray, evaluated 5 days after inoculation, read-out: efficacy
Excerpt: After the spray coating has been dried, the plants are slightly injured by using a sandblast and afterwards they are sprayed with a conidia suspension of Fusarium nivale (var. majus).

[14] = tested on: Pyricularia oryzae; assay: whole plant or invertebrate; type: in vivo; conditions: 192 h, read-out: efficacy
[15] = tested on: Venturia inaequalis; assay: In vivo preventive Venturia test (apples), Example J; conditions: 240 h, read-out: efficacy
Procedure: After the spray coating has dried on, the plants are inoculated with an aqueous conidia suspension of the causal agent of apple scab (Venturia inaequalis) and then remain for 1 day in an incubation cabinet at approximately 20° C. and a relative atmospheric humidity of 100%.
The plants are then placed in a greenhouse at approximately 21° C. and a relative atmospheric humidity of approximately 90%.
The test is evaluated 10 days after the inoculation.

[16] = tested on: Alternaria brassicae; assay: In vivo preventive test on Alternaria brassicae (leaf spot on radish), Examples A and R1; conditions: Alternaria brassicae, 144 h
[17] = 500 ppm of active ingredient, preventive spray, evaluated 4 to 5 days after inoculation, read-out: efficacy
[18] = 500 ppm of active ingredient, wheat, read-out: efficacy
[19] = 500 ppm of active ingredient, preventive spray, evaluated 14 days after inoculation, read-out: efficacy
[20] = 500 ppm of active ingredient, gherkin, read-out: efficacy
[21] = 500 ppm of active ingredient, bean, read-out: efficacy
[22] = 500 ppm of active ingredient, preventive spray, evaluated 6 days after inoculation, read-out: efficacy

Row | Compound | chromatographic logP [1] | pest or weed control at 500 ppm [2, 17] [%] | pest or weed control at 500 ppm [3, 18] [%] | pest or weed control at 500 ppm [4, 19] [%] | pest or weed control at 500 ppm [5, 18] [%] | pest or weed control at 500 ppm [6, 20] [%] | pest or weed control at 500 ppm [7, 21] [%] | pest or weed control at 100 ppm [8] [%] | pest or weed control at 100 ppm [9] [%] | pest or weed control at 500 ppm [10] [%] | pest or weed control at 500 ppm [11] [%] | pest or weed control at 500 ppm [12] [%] | pest or weed control at 500 ppm [13] [%] | pest or weed control at 500 ppm [14] [%] | pest or weed control at 100 ppm [15] [%] | other results
1 | OC(Cc1cccc(F)c1F)(Cn1cncc1Cl)C1(Cl)CC1 (stereo not drawn) [Example I-147] | 2.17 | 90 to 100 | 90 to 100 | 90 to 100 | 90 to 100 | 90 to 100 | 90 to 100 | 90 to 100 | 90 to 100 | 90 to 100 | 90 to 100 | 90 to 100 | 90 to 100 | 80 to 89 | 90 to 100 | –
2 | OC(Cc1c(Cl)ccnc1Cl)(Cn1cncc1Cl)C1(Cl)CC1 (stereo not drawn) [Example I-11] | 2.02 | – | 80 to 89 | 80 to 89 | 90 to 100 | 90 to 100 | 90 to 100 | – | – | – | – | 80 to 89 | 80 to 89 | 80 to 89 | – | –
3 | N#Cc1cncn1CC(O)(Cc1cccc(Cl)c1Cl)C1(Cl)CC1 (stereo not drawn) [Example I-49] | 3.25 | – | 90 to 100 | 90 to 100 | 90 to 100 | 90 to 100 | 90 to 100 | – | – | 90 to 100 | 70 to 79 | 80 to 89 | 80 to 89 | 80 to 89 | – | –
4 | N#Cc1cncn1CC(O)(Cc1ccc(Br)cc1F)C1(Cl)CC1 (stereo not drawn) [Example I-42] | 3.24 | 80 to 89 | 90 to 100 | 70 to 79 | 90 to 100 | 90 to 100 | 90 to 100 | 70 to 79 | 90 to 100 | 90 to 100 | 80 to 89 | 90 to 100 | 80 to 89 | 80 to 89 | 80 to 89 | –
5 | N#Cc1cncn1CC(O)(Cc1ccc(F)cc1F)C1(Cl)CC1 (stereo not drawn) [Example I-125] | 2.78 | 80 to 89 | 90 to 100 | – | 90 to 100 | 90 to 100 | 90 to 100 | 90 to 100 | 90 to 100 | 90 to 100 | 90 to 100 | 80 to 89 | 90 to 100 | 80 to 89 | 90 to 100 | –
6 | OC(Cc1ccncc1Cl)(Cn1cncc1Cl)C1(Cl)CC1 (stereo not drawn) [Example I-72] | 1.52 | 70 to 79 | 80 to 89 | 80 to 89 | 90 to 100 | 90 to 100 | 90 to 100 | – | – | 90 to 100 | 70 to 79 | 90 to 100 | 90 to 100 | 90 to 100 | – | –
7 | N#Cc1cncn1CC(O)(Cc1ccnc(Cl)c1F)C1(Cl)CC1 (stereo not drawn) [Example I-152] | 2.25 | – | 90 to 100 | 70 to 79 | 90 to 100 | 90 to 100 | 90 to 100 | – | – | 90 to 100 | 70 to 79 | 70 to 79 | 90 to 100 | – | – | –
8 | OC(Cc1ccccc1F)(Cn1cncc1Cl)C1(Cl)CC1 (stereo not drawn) [Example I-32] | 2.07 | 90 to 100 | 90 to 100 | 80 to 89 | 90 to 100 | 90 to 100 | 90 to 100 | 90 to 100 | 90 to 100 | 90 to 100 | 70 to 79 | 80 to 89 | 80 to 89 | – | 90 to 100 | pest or weed control at 500 ppm [16, 22]: 90 to 100%; pest or weed control at 100 ppm ([16]; Example R1, rate of application 100 ppm, read-out: Efficacy in %): 50%; pest or weed control at 500 ppm ([16]; Example R1, rate of application 500 ppm, read-out: Efficacy in %): 92%; pest or weed control at 100 ppm ([2]; Example R2, rate of application 100 ppm, read-out: Efficacy in %): 99%; pest or weed control at 500 ppm ([2]; Example R2, rate of application 500 ppm, read-out: Efficacy in %): 100%; pest or weed control at 100 ppm ([3]; Example R3, wheat, 100 ppm, read-out: Efficacy in %): 78%; pest or weed control at 500 ppm ([3]; Example R3, wheat, 500 ppm, read-out: Efficacy in %): 94%; pest or weed control at 100 ppm ([4]; Example R4, rate of application 100 ppm, read-out: Efficacy in %): 78%; pest or weed control at 500 ppm ([4]; Example R4, rate of application 500 ppm, read-out: Efficacy in %): 89%; pest or weed control at 100 ppm ([5]; Example R5, wheat, 100 ppm, read-out: Efficacy in %): 71%; pest or weed control at 500 ppm ([5]; Example R5, wheat, 500 ppm, read-out: Efficacy in %): 100%; pest or weed control at 100 ppm ([6]; Example R6, gherkin, 100 ppm, read-out: Efficacy in %): 100%; pest or weed control at 500 ppm ([6]; Example R6, gherkin, 500 ppm, read-out: Efficacy in %): 100%; pest or weed control at 100 ppm ([7]; Example R7, bean, 100 ppm, read-out: Efficacy in %): 81%; pest or weed control at 500 ppm ([7]; Example R7, bean, 500 ppm, read-out: Efficacy in %): 100%
9 | OC(Cc1ccc(Br)cc1F)(Cn1cncc1Cl)C1(Cl)CC1 (stereo not drawn) [Example I-44] | 2.64 | 90 to 100 | 80 to 89 | 90 to 100 | 90 to 100 | 90 to 100 | 90 to 100 | 90 to 100 | 90 to 100 | 90 to 100 | 70 to 79 | 80 to 89 | – | 70 to 79 | 90 to 100 | –
10 | OC(Cc1ccccc1F)(Cn1cncc1Br)C1(Cl)CC1 (stereo not drawn) [Example I-33] | 2.1 | 90 to 100 | 80 to 89 | 80 to 89 | 90 to 100 | 90 to 100 | 90 to 100 | 90 to 100 | 90 to 100 | 90 to 100 | – | 90 to 100 | – | – | 90 to 100 | pest or weed control at 500 ppm [16, 22]: 90 to 100%
11 | N#Cc1cncn1CC(O)(Cc1ccc(Br)cc1Cl)C1(Cl)CC1 (stereo not drawn) [Example I-41] | 3.52 | – | 90 to 100 | – | 90 to 100 | 90 to 100 | 90 to 100 | – | – | 90 to 100 | 90 to 100 | 70 to 79 | 80 to 89 | – | – | –
12 | N#Cc1cncn1CC(O)(Cc1ccc(F)cc1Cl)C1(Cl)CC1 (stereo not drawn) [Example I-154] | 3 | 80 to 89 | 90 to 100 | – | 90 to 100 | 90 to 100 | 90 to 100 | – | – | 90 to 100 | 90 to 100 | 90 to 100 | 90 to 100 | 70 to 79 | – | –
